Source: patent US20240423204A1, “METHOD AND USE OF AN ENANTIOMER OF 3,4-DIHYDROXYPHENYLALANINE (DOPA) FOR ENHANCING PLANT ATTRACTIVENESS TO BENEFICIAL INSECTS” (BIOBAB R&D, S.L., priority 2021, published 2024)

Columns and labels:
Aphidius ervi = test: Behavioral assay in two-way olfactometer, bean plants (Vicia faba) treated by soil application; assay type: in vivo; details: 10 min, Vicia faba 3-4 weeks, versus clean plant
Method: Broad bean seeds (Vicia faba cv Aguadulce supersimonia) were planted individually in plastic pots (6×6×9 cm) filled with Traysubstrat topsoil (Klasmann-Deilmann GmbH) or a mixture of agriperlite, vermiculite, and sand (1:1:1) and grown in an environmental chamber (24±2° C., 45±10% RH, 14 h: 8 h L: D).
For this example, bean plants of 3-4 weeks were used. Plants were treated by soil application of the two isomers of DOPA: 3,4-dihydroxy-L-phenylalanine (Alfa Aesar, CAS Number 59-92-7) and 3,4-dihydroxy-D-phenylalanine (Sigma Aldrich, CAS Number 5796-17-8).
Untreated plants were also used as control.
The attractiveness of beneficial insects, specifically Aphidius ervi, towards a bean plants treated with the isomers of DOPA compared to clean bean plant (control) was evaluated in an olfactometer.
The behavioral response of A. ervi were evaluated over 10 min in a two-way olfactometer. Only active insects, i.e. insects that spent at least 60 s in the treatment (trt) and/or control (cnt) arm of the olfactometer were taken into account.
The results obtained in this example are expressed as a percentage of residence time in each olfactometer arm where the parasitoid remained, relative to the total time spent in the two arms. Paired t-tests were conducted using R (free software environment for statistical computing and graphics).

bean plants (Vicia faba) [1] = test: VOC induction assay on bean plants (Vicia faba) in soil/vermiculite; assay type: in vivo; details: 10 μg in 30 mL, 24 h, 6-methyl-5-hepten-2one, cis-3-hexen-1-ol, cis-3-hexenyl acetate, ocimene
Method: (§1) Broad beans (Vicia faba cv Histal) plants were grown in a mixture of sterile soil/vermiculite (7:3) for 10 days, and treated with L-DOPA (10 μg), D-DOPA (10 μg) or HPLC water (control, 10 μl) dissolved in 30 mL of distilled water.
(§2) After 24 h, the volatile organic compounds (VOCs) emitted from the plant were collected through a dynamic headspace.
(§3) The bean plants were enclosed in a glass vessel with a volume of 3.2 I. The bottom of the vessel was enclosed around the top of the pot. Air that had been purified by passage through an activated charcoal filter (BDH, 10-14 mesh) was pushed into (750 ml·min^−1) and pulled (700 ml·min^−1) out of the vessel. VOCs were trapped onto Porapack™ (Porous Polymer Adsorbent) 50/80 mesh (50 mg; Supelco, Bellefonte, USA) held in glass tubing (5 mm outer diameter) by two plugs of silanised glass wool. The Porapack™ tube was conditioned by washing with redistilled diethyl ether (2 ml) and heating at 130° C. for 4 h under a stream of purified nitrogen. […]
(§4) For the analysis, four samples (1 μL) from each treatment (L-DOPA, D-DOPA and Control) were analyzed on an Agilent 7820A Gas Chromatograph (Agilent Technologies, Santa Clara, California, USA), equipped with a cool column injector, flame ionization detector (FID), and a HP-1 capillary GC column (50 m×0.32 mm internal diameter×0.52 μm film thickness). […]

bean plants (Vicia faba) [2] = test: VOC induction assay on bean plants (Vicia faba) in hydroponic medium; assay type: in vivo; details: 10 μg
Method: Broad beans (Vicia faba cv Histal) were potted in sterile vermiculite and kept in a glasshouse at 23° C. After 7 days, the seedlings were gently removed from the vermiculite, the cotyledons peeled and the roots rinsed with bidistilled water, carefully brushing away all soil particles. They were then placed in glass beakers containing a hydroponic solution made with Hoagland's modified basalt salt mixture, (MP, USA), and maintained in an environmental chamber at 23° C. Each beaker, containing three seedlings, was wrapped in aluminum foil to hold the plants in position and to prevent the light from reaching the roots. Every 4 days, the hydroponic solution in each beaker was renewed. After 10 days plants were treated with L-DOPA (10 μg), D-DOPA (10 μg) or HPLC water (control, 10 μl) dissolved in 30 mL of distilled water.
(§5) The bean plants were enclosed in a glass vessel with a volume of 3.2 I. The bottom of the vessel was enclosed around the top of the pot. Air that had been purified by passage through an activated charcoal filter (BDH, 10-14 mesh) was pushed into (750 ml·min^−1) and pulled (700 ml·min^−1) out of the vessel. VOCs were trapped onto Porapack™ (Porous Polymer Adsorbent) 50/80 mesh (50 mg; Supelco, Bellefonte, USA) held in glass tubing (5 mm outer diameter) by two plugs of silanised glass wool. The Porapack™ tube was conditioned by washing with redistilled diethyl ether (2 ml) and heating at 130° C. for 4 h under a stream of purified nitrogen.
(§6) VOCs collected on the Porapak™ were eluted with 750 μL of redistilled diethyl ether and the samples were stored at −20° C. until analysis.
(§7) For the analysis, four samples (1 μL) from each treatment (L-DOPA, D-DOPA and Control) were analyzed on an Agilent 7820A Gas Chromatograph (Agilent Technologies, Santa Clara, California, USA), equipped with a cool column injector, flame ionization detector (FID), and a HP-1 capillary GC column (50 m×0.32 mm internal diameter×0.52 μm film thickness). Hydrogen was the carrier gas. The oven temperature was maintained at 30° C. for 0.1 min, then programmed to increase at 10° C.·min^−1 until 250° C., and then held for 38 min. Tentative identifications were made by Kovats' Index values and GC peak enhancement on GC columns of HP-1, using authentic samples of chemicals compounds.

[3] = system: bean plants (Phaseolus vulgaris); test: VOC induction assay on bean plants (Phaseolus vulgaris) in hydroponic medium; assay type: in vivo; details: 10 μg, 24 h
Method: Beans (Phaseolus vulgaris cv CGB0002) were sown in sterile vermiculite and kept in a glasshouse at 27° C. After 17 days, the seedlings were gently removed from the vermiculite. They were then placed in glass beakers containing 150 mL of hydroponic solution made with Hoagland's modified basalt salt mixture, (MP, USA), and maintained in an environmental chamber at 27° C. Each beaker, containing one seedling, was wrapped in aluminum foil to hold the plants in position and to prevent the light from reaching the roots. After 2 days plants were treated with L-DOPA (10 μg), D-DOPA (10 μg) or HPLC water (control, 10 μl).
as §2, §5, §6, §7

[4] = system: bean plant (Vicia faba) leaves; test: Estimation of total phenolic content in bean plant (Vicia faba) leaves, Folin-Ciocalteu assay; assay type: in vivo; details: soil/vermiculite, 10 μg in 30 mL, 24 h
Method: The estimation of total phenolic content in bean plant leaves (Vicia faba) was based on the procedure developed by Ainsworth, E.A. et al. (2007) using Folin-Ciocalteu (F-C) reagent. F-C assay is commonly been used to assay total phenolic content. The F-C assay provides a convenient, rapid, and simple estimation of the content of total phenolics, and other oxidation substrates in plant extracts.
as §1, with “bean” for “beans”, “water. After 24 h harvest leaves material (approximately 20 mg) in screw-capped tubes and freeze immediately in liquid nitrogen.” for “water.”
To homogenize the tissue, three tungsten carbide beads and 2 ml of ice-cold 95% (vol/vol) methanol were added in each sample tube and insert samples into pre-cooled Teflon adaptors. Tissue was homogenized for 5 min at 30 Hz. […]
Finally, a […] sample, standard or blank from the assay tube were transferred to a clear 96-well micro-plate and the absorbance of each was measured at 750 nm using a spectrophotometer.
For calculate the total phenolic content, first a standard curve from the blank-corrected A750 of the gallic acid standards was calculated. […]

[5] = system: bean plants (Phaseolus vulgaris); test: VOC induction assay on bean plants (Phaseolus vulgaris) in soil; assay type: in vivo; details: 10 μg in 30 mL, 24 h, cis-3-hexenyl acetate and ocimene
Method: Bean (Phaseolus vulgaris cv CGB0002) plants were grown in sterile soil for 5 days, and treated with L-DOPA (10 μg), D-DOPA (10 μg) or HPLC water (control, 10 μl) dissolved in 30 mL of distilled water.
as §2, §3, §4

[6] = system: wheat plants (Triticum monococcum); test: VOC induction assay on wheat plants (Triticum monococcum) in soil; assay type: in vivo; details: 10 μg in 30 mL, 24 h
Method: Wheat (Triticum monococcum VAR Tocayo) plants were grown in sterile soil for 15 days (20 seeds per pot), and treated with L-DOPA (10 μg), D-DOPA (10 μg) or HPLC water (control, 10 μl) dissolved in 30 mL of distilled water.
as §2
as §3, with “wheat” for “bean”
as §4

many plants = details: allelochemical effect, Nishihara et al (2004); cited from earlier work

Structure (SMILES)	residence time of A. ervi females on treated bean plants, higher than for untreated plants (Aphidius ervi)	concentration of VOCs (FID response) emitted by the plant versus control (bean plants (Vicia faba) [1])	concentration of 6-methyl-5-hepten-2one versus control (bean plants (Vicia faba) [2])	concentration of cis-3-hexenyl acetate versus control (bean plants (Vicia faba) [2])	concentration of ocimene versus control (bean plants (Vicia faba) [2])	concentration of cis-3-hexen-1-ol versus control [3]	concentration of ocimene versus control [3]	total phenolic content versus untreated plants (control) [4]	concentration of VOCs (FID response) versus control [5]	concentration of 6-methyl-5-hepten-2one versus control [3]	concentration of cis-3-hexenyl acetate versus control [3]	concentration of ocimene versus control [6]	growth of plants (especially radicle and hypocotyl) (many plants)
N[C@H](Cc1ccc(O)c(O)c1)C(=O)O [D-DOPA, D-3,4-dihydroxyphenylalanine]	approx. +20%	A change is observed	A change is observed	A change is observed	A change is observed	A change is observed	A change is observed	higher	–	–	–	–	–
N[C@@H](Cc1ccc(O)c(O)c1)C(=O)O [L-DOPA, L-3,4-dihydroxyphenylalanine]	approx. +20%	A change is observed	A change is observed	A change is observed	A change is observed	A change is observed	A change is observed	higher	A change is observed	A change is observed	A change is observed	A change is observed	reduced the growth
